Reference: ChEMBL document CHEMBL4480398, “1,2,4-Triazolo[1,5-a]pyrimidines in drug design” (Eur J Med Chem, 2019)
≈ marks a conversion by molar mass, not a printed value.

Tests used:
Type in all cases: functional
[1] = system: Mycobacterium tuberculosis; assay: Antibacterial activity against multidrug-resistant Mycobacterium tuberculosis M22 after 9 days by inverted microscopic analysis; details: M22, 216 h
[2] = system: Mycobacterium tuberculosis; assay: Antibacterial activity against multidrug-resistant Mycobacterium tuberculosis M23 after 9 days by inverted microscopic analysis; details: M23, 216 h
[3] = system: Mycobacterium tuberculosis; assay: Antibacterial activity against multidrug-resistant Mycobacterium tuberculosis P887 after 9 days by inverted microscopic analysis; details: P887, 216 h
[4] = system: Mycobacterium tuberculosis; assay: Antibacterial activity against extensively drug resistant Mycobacterium tuberculosis X24 after 9 days by inverted microscopic analysis; details: X24, 216 h
[5] = system: Mycobacterium tuberculosis; assay: Antibacterial activity against extensively drug resistant Mycobacterium tuberculosis X59 after 9 days by inverted microscopic analysis; details: X59, 216 h

SMILES	MIC [1] [µM]	MIC [2] [µM]	MIC [3] [µM]	MIC [4] [µM]	MIC [5] [µM]
Cc1nc2nc(S(=O)(=O)Nc3c(Br)ccc4cccnc34)nn2c2c1CCC2	2 (≈ 0.919 µg/mL)	2 (≈ 0.919 µg/mL)	2 (≈ 0.919 µg/mL)	2 (≈ 0.919 µg/mL)	2 (≈ 0.919 µg/mL)
Cc1ccn2nc(S(=O)(=O)Nc3c(Br)ccc4cccnc34)nc2n1	0.5 (≈ 0.21 µg/mL)	0.5 (≈ 0.21 µg/mL)	0.5 (≈ 0.21 µg/mL)	0.5 (≈ 0.21 µg/mL)	0.5 (≈ 0.21 µg/mL)
